Reference: PubChem BioAssay AID1845196 (Molecular Pharmacology Branch, DTP, NCI, 2023)
pIC50: −log10 of the molar value.

System: 292921-168-R tumor spheroid viability
Assay: Anticancer human tumor 292921-168-R patient-derived pancreatic carcinoma cell line growth inhibition
Details: spheroids with HUVEC and MSC; for pIC50: curve of first compound; for viability, T/C: stronger effect = lower value
Procedure, shortened: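 Complex spheroids of malignant cells with endothelial cells and mesenchymal stem cells; agents alone or combined, from near clinical Cmax (or 10 microM if unknown) down in half-log steps, 0.25% DMSO final.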

[1] = second compound 0.003 µM, first compound 0.0316 µM
[2] = second compound 0.003 µM, first compound 0.1 µM
[3] = second compound 0.003 µM, first compound 0.316 µM
[4] = second compound 0.003 µM, first compound 1 µM
[5] = second compound 0.003 µM, first compound 3.16 µM
[6] = second compound 0.003 µM, first compound 10 µM
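Also: spheroids exposed to compounds for 7 days.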

SMILES: COc1ccc([C@@H](O)c2cc(-c3ncnc4cc(N5CCOCC5)ccc34)c(F)cc2Cl)nn1 + COc1cc2c(cc1O)CCNC21CSC2c3c(OC(C)=O)c(C)c4c(c3C(COC1=O)N1C(O)C3Cc5cc(C)c(OC)c(O)c5C(C21)N3C)OCO4
- pIC50 (second compound 30 pM): 5.84
- pIC50 (second compound 94.9 pM): 6.06
- pIC50 (second compound 0.0003 µM): > 7.50
- pIC50 (second compound 0.000949 µM): > 7.50
- pIC50 (second compound 0.003 µM): > 7.50
- viability, T/C (second compound 30 pM, first compound 0.0316 µM): 100%
- viability, T/C (second compound 30 pM, first compound 0.1 µM): 107%
- viability, T/C (second compound 30 pM, first compound 0.316 µM): 95.6%
- viability, T/C (second compound 30 pM, first compound 1 µM): 58.6%
- viability, T/C (second compound 30 pM, first compound 3.16 µM): 31.1%
- viability, T/C (second compound 30 pM, first compound 10 µM): 19.5%
- viability, T/C (second compound 94.9 pM, first compound 0.0316 µM): 105%
- viability, T/C (second compound 94.9 pM, first compound 0.1 µM): 99.2%
- viability, T/C (second compound 94.9 pM, first compound 0.316 µM): 78.7%
- viability, T/C (second compound 94.9 pM, first compound 1 µM): 45.4%
- viability, T/C (second compound 94.9 pM, first compound 3.16 µM): 27.4%
- viability, T/C (second compound 94.9 pM, first compound 10 µM): 19%
- viability, T/C (second compound 0.0003 µM, first compound 0.0316 µM): 40.7%
- viability, T/C (second compound 0.0003 µM, first compound 0.1 µM): 43.3%
- viability, T/C (second compound 0.0003 µM, first compound 0.316 µM): 26.3%
- viability, T/C (second compound 0.0003 µM, first compound 1 µM): 13.7%
- viability, T/C (second compound 0.0003 µM, first compound 3.16 µM): 9.98%
- viability, T/C (second compound 0.0003 µM, first compound 10 µM): 7.7%
- viability, T/C (second compound 0.000949 µM, first compound 0.0316 µM): 2.51%
- viability, T/C (second compound 0.000949 µM, first compound 0.1 µM): 2.48%
- viability, T/C (second compound 0.000949 µM, first compound 0.316 µM): 0.8%
- viability, T/C (second compound 0.000949 µM, first compound 1 µM): 0.09%
- viability, T/C (second compound 0.000949 µM, first compound 3.16 µM): 0.1%
- viability, T/C (second compound 0.000949 µM, first compound 10 µM): 0.26%
- viability, T/C [1]: 0.14%
- viability, T/C [2]: 0.23%
- viability, T/C [3]: 0.49%
- viability, T/C [4]: 1.37%
- viability, T/C [5]: 1.46%
- viability, T/C [6]: 1.42%

SMILES: Cn1ncnc1[C@H]1c2n[nH]c(=O)c3cc(F)cc(c23)N[C@@H]1c1ccc(F)cc1 + CC[C@@]1(O)C(=O)OCc2c1cc1n(c2=O)Cc2cc3c(CN(C)C)c(O)ccc3nc2-1
- pIC50 (second compound 0.003 µM): 6.74
- pIC50 (second compound 0.00949 µM): 7.88
- pIC50 (second compound 0.03 µM): > 8.02
- pIC50 (second compound 0.0949 µM): > 8.02
- pIC50 (second compound 0.3 µM): > 8.02
- viability, T/C (second compound 0.003 µM, first compound 0.00949 µM): 82.7%
- viability, T/C (second compound 0.003 µM, first compound 0.03 µM): 73.9%
- viability, T/C (second compound 0.003 µM, first compound 0.0949 µM): 57.4%
- viability, T/C (second compound 0.003 µM, first compound 0.3 µM): 41%
- viability, T/C (second compound 0.003 µM, first compound 0.949 µM): 31.4%
- viability, T/C (second compound 0.003 µM, first compound 3 µM): 12%
- viability, T/C (second compound 0.00949 µM, first compound 0.00949 µM): 52.6%
- viability, T/C (second compound 0.00949 µM, first compound 0.03 µM): 44.7%
- viability, T/C (second compound 0.00949 µM, first compound 0.0949 µM): 33.8%
- viability, T/C (second compound 0.00949 µM, first compound 0.3 µM): 30.1%
- viability, T/C (second compound 0.00949 µM, first compound 0.949 µM): 19.5%
- viability, T/C (second compound 0.00949 µM, first compound 3 µM): 12.9%
- viability, T/C (second compound 0.03 µM, first compound 0.00949 µM): 23.6%
- viability, T/C (second compound 0.03 µM, first compound 0.03 µM): 21.1%
- viability, T/C (second compound 0.03 µM, first compound 0.0949 µM): 17.4%
- viability, T/C (second compound 0.03 µM, first compound 0.3 µM): 16.9%
- viability, T/C (second compound 0.03 µM, first compound 0.949 µM): 14.5%
- viability, T/C (second compound 0.03 µM, first compound 3 µM): 8.5%
- viability, T/C (second compound 0.0949 µM, first compound 0.00949 µM): 11%
- viability, T/C (second compound 0.0949 µM, first compound 0.03 µM): 10.7%
- viability, T/C (second compound 0.0949 µM, first compound 0.0949 µM): 9.81%
- viability, T/C (second compound 0.0949 µM, first compound 0.3 µM): 8.52%
- viability, T/C (second compound 0.0949 µM, first compound 0.949 µM): 7.84%
- viability, T/C (second compound 0.0949 µM, first compound 3 µM): 5.32%
- viability, T/C (second compound 0.3 µM, first compound 0.00949 µM): 4.91%
- viability, T/C (second compound 0.3 µM, first compound 0.03 µM): 5.12%
- viability, T/C (second compound 0.3 µM, first compound 0.0949 µM): 4.52%
- viability, T/C (second compound 0.3 µM, first compound 0.3 µM): 4.48%
- viability, T/C (second compound 0.3 µM, first compound 0.949 µM): 3.83%
- viability, T/C (second compound 0.3 µM, first compound 3 µM): 2.41%

SMILES: Cc1cc(C)c(CNC(=O)c2cc(-c3ccc(CN4CCOCC4)cc3)cc3c2cnn3C2CCCC2)c(=O)[nH]1 + CC[C@@]1(O)C(=O)OCc2c1cc1n(c2=O)Cc2cc3c(CN(C)C)c(O)ccc3nc2-1
- pIC50 (second compound 0.003 µM): < 5.00
- pIC50 (second compound 0.00949 µM): < 5.00
- pIC50 (second compound 0.03 µM): > 7.50
- pIC50 (second compound 0.0949 µM): > 7.50
- pIC50 (second compound 0.3 µM): > 7.50
- viability, T/C [1]: 87.6%
- viability, T/C [2]: 78.4%
- viability, T/C [3]: 84.7%
- viability, T/C [4]: 82.2%
- viability, T/C [5]: 85.9%
- viability, T/C [6]: 50.9%
- viability, T/C (second compound 0.00949 µM, first compound 0.0316 µM): 76.9%
- viability, T/C (second compound 0.00949 µM, first compound 0.1 µM): 77.2%
- viability, T/C (second compound 0.00949 µM, first compound 0.316 µM): 76%
- viability, T/C (second compound 0.00949 µM, first compound 1 µM): 71.7%
- viability, T/C (second compound 0.00949 µM, first compound 3.16 µM): 64.8%
- viability, T/C (second compound 0.00949 µM, first compound 10 µM): 53%
- viability, T/C (second compound 0.03 µM, first compound 0.0316 µM): 32.5%
- viability, T/C (second compound 0.03 µM, first compound 0.1 µM): 37.8%
- viability, T/C (second compound 0.03 µM, first compound 0.316 µM): 34.9%
- viability, T/C (second compound 0.03 µM, first compound 1 µM): 35.5%
- viability, T/C (second compound 0.03 µM, first compound 3.16 µM): 28.6%
- viability, T/C (second compound 0.03 µM, first compound 10 µM): 27.8%
- viability, T/C (second compound 0.0949 µM, first compound 0.0316 µM): 14.8%
- viability, T/C (second compound 0.0949 µM, first compound 0.1 µM): 14.2%
- viability, T/C (second compound 0.0949 µM, first compound 0.316 µM): 14.2%
- viability, T/C (second compound 0.0949 µM, first compound 1 µM): 13.4%
- viability, T/C (second compound 0.0949 µM, first compound 3.16 µM): 14.1%
- viability, T/C (second compound 0.0949 µM, first compound 10 µM): 13.1%
- viability, T/C (second compound 0.3 µM, first compound 0.0316 µM): 3.97%
- viability, T/C (second compound 0.3 µM, first compound 0.1 µM): 4.78%
- viability, T/C (second compound 0.3 µM, first compound 0.316 µM): 4.87%
- viability, T/C (second compound 0.3 µM, first compound 1 µM): 5.2%
- viability, T/C (second compound 0.3 µM, first compound 3.16 µM): 5.56%
- viability, T/C (second compound 0.3 µM, first compound 10 µM): 6.73%
